Measurements as given in ChEMBL document CHEMBL1909046, “DrugMatrix in vitro pharmacology data”.

Experiments:
[1] = molecular target: T1, Neutrophil elastase (Homo sapiens, UniProt P08246); assay type: tissue-based;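 note: inhibition of neutrophil elastase enzyme activity, measured with a p-nitroanilide-linked peptide substrate; in other assays of this panel Not Active means under 50% inhibition at 10 µM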
T1 sequence (P08246 whole entry): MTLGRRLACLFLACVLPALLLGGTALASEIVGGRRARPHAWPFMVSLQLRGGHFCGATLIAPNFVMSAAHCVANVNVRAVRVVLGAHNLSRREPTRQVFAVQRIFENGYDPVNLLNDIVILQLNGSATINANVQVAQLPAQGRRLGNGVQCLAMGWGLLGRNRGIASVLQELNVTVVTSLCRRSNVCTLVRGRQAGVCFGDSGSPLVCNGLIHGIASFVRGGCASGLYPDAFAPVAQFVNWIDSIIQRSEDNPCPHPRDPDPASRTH

[2] = DRUGMATRIX: Calcium Channel Type L, Benzothiazepine radioligand binding (ligand: [3H] Diltiazem); assay type: cell membranes, Rattus norvegicus, Wistar, Brain, Membrane; settings: Not Active = under 50% inhibition at 10 µM
[3] = molecular target: T2, Neuropeptide Y receptor type 1 (Homo sapiens, UniProt P25929); assay type: cell membranes, Membrane; settings: sk-n-mc; note: in other assays of this panel Not Active means under 50% inhibition at 10 µM
T2 sequence (P25929 whole entry): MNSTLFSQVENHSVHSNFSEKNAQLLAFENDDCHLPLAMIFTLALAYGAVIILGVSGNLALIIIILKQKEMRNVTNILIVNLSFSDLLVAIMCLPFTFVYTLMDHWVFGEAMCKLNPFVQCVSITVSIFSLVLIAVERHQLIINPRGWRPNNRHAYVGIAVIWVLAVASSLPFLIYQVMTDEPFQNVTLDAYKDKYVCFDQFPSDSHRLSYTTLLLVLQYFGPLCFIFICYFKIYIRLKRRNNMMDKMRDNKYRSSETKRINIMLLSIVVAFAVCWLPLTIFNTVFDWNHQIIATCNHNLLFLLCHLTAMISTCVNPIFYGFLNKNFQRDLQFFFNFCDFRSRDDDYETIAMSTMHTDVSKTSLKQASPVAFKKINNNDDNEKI

[4] = molecular target: T3, D(4) dopamine receptor (Homo sapiens, UniProt P21917); test: DRUGMATRIX: Dopamine D4.2 radioligand binding (ligand: [3H] Spiperone); assay type: cell membranes, CHO-K1, Membrane; settings: cho-k1; Not Active = under 50% inhibition at 10 µM
T3 sequence (P21917 whole entry): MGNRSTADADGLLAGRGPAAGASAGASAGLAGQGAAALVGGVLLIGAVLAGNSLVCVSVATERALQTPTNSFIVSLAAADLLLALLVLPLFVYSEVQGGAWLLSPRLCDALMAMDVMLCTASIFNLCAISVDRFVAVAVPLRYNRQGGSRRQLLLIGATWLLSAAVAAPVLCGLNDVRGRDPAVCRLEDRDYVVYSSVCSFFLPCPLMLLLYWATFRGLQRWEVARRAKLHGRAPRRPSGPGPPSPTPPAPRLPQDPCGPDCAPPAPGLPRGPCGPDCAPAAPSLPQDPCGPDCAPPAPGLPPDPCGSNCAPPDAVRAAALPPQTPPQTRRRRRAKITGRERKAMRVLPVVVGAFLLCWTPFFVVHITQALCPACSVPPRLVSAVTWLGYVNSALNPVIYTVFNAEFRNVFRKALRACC

[5] = molecular target: T4, Alpha-1A adrenergic receptor (Rattus norvegicus, UniProt P43140); test: DRUGMATRIX: Alpha-1A adrenergic receptor radioligand binding (ligand: prazosin); assay type: cell membranes, Wistar, Submaxillary gland, Membrane; settings: Not Active = under 50% inhibition at 10 µM
T4 sequence (P43140 whole entry): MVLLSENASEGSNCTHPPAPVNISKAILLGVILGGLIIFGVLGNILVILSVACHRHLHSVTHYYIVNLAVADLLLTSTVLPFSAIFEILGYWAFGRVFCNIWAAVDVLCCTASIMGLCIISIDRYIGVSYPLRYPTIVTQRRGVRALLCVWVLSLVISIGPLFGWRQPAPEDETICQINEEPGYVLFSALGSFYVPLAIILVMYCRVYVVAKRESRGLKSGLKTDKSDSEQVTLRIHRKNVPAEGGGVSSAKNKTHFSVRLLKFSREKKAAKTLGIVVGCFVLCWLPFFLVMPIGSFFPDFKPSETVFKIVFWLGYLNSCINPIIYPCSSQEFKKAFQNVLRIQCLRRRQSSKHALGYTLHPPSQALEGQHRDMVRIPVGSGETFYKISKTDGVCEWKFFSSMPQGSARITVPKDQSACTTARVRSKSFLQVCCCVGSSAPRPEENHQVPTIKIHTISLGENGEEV

[6] = molecular target: T5, C-X-C chemokine receptor type 2 (Homo sapiens, UniProt P25025); assay type: cell membranes, CHO-K1, Membrane; settings: cho-k1; note: in other assays of this panel Not Active means under 50% inhibition at 10 µM
T5 sequence (P25025 whole entry): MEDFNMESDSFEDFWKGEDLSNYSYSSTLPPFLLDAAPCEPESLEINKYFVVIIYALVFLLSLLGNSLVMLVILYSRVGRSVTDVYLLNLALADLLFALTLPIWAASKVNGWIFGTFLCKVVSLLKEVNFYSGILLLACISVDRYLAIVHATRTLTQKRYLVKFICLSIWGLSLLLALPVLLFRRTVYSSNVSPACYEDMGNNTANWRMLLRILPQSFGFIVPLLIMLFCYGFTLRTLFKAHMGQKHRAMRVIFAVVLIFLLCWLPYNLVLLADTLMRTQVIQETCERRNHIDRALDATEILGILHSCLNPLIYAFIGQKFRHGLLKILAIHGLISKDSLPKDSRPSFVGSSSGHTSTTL

CCC(C)(C)C(=O)O[C@H]1C[C@@H](C)C=C2C=C[C@H](C)[C@H](CC[C@@H]3C[C@@H](O)CC(=O)O3)[C@H]21 [SIMVASTATIN]
Not Active: IC50 [1] | IC50 [2] | Ki [2] | IC50 [3] | IC50 [4] | IC50 [5] | IC50 [6]

O=[As][O-].[Na+] [SODIUM ARSENITE]
Not Active: IC50 [1] | IC50 [2] | Ki [2] | IC50 [3] | IC50 [4] | IC50 [5] | IC50 [6]

C1CCN2C[C@@H]3C[C@@H](CN4CCCC[C@@H]34)[C@H]2C1 [SPARTEINE]
Not Active: IC50 [1] | IC50 [2] | Ki [2] | IC50 [3] | IC50 [4] | IC50 [5] | IC50 [6]

C[C@]12CCC(=O)C[C@@H]1CC[C@@H]1[C@@H]2CC[C@]2(C)[C@@H](O)CC[C@@H]12 [STANOLONE]
Not Active: IC50 [1] | IC50 [2] | Ki [2] | IC50 [3] | IC50 [4] | IC50 [5] | IC50 [6]

Cc1cn([C@H]2C=C[C@@H](CO)O2)c(=O)[nH]c1=O [STAVUDINE]
Not Active: IC50 [1] | IC50 [2] | Ki [2] | IC50 [3] | IC50 [4] | IC50 [5] | IC50 [6]

CC1(C)[C@H](C(=O)O)N2C(=O)C[C@H]2S1(=O)=O [SULBACTAM]
Not Active: IC50 [1] | IC50 [2] | Ki [2] | IC50 [3] | IC50 [4] | IC50 [5] | IC50 [6]

Cc1ccnc(NS(=O)(=O)c2ccc(N)cc2)n1 [SULFAMERAZINE]
Not Active: IC50 [1] | IC50 [2] | Ki [2] | IC50 [3] | IC50 [4] | IC50 [5] | IC50 [6]

Cc1nnc(NS(=O)(=O)c2ccc(N)cc2)s1 [SULFAMETHIZOLE]
Not Active: IC50 [1] | IC50 [2] | Ki [2] | IC50 [3] | IC50 [4] | IC50 [5] | IC50 [6]

O=C(O)c1cc(/N=N/c2ccc(S(=O)(=O)Nc3ccccn3)cc2)ccc1O [SULFASALAZINE]
Not Active: IC50 [1] | IC50 [2] | Ki [2] | IC50 [3] | IC50 [4] | IC50 [5] | IC50 [6]

CCN1CCCC1CNC(=O)c1cc(S(N)(=O)=O)ccc1OC (stereo unspecified) [SULPIRIDE]
Not Active: IC50 [1] | IC50 [2] | Ki [2] | IC50 [3] | IC50 [4] | IC50 [5] | IC50 [6]

O=C(OC[C@H]1O[C@@H](OC(=O)c2cc(O)c(O)c(OC(=O)c3cc(O)c(O)c(O)c3)c2)[C@H](OC(=O)c2cc(O)c(O)c(OC(=O)c3cc(O)c(O)c(O)c3)c2)[C@@H](OC(=O)c2cc(O)c(O)c(OC(=O)c3cc(O)c(O)c(O)c3)c2)[C@@H]1OC(=O)c1cc(O)c(O)c(OC(=O)c2cc(O)c(O)c(O)c2)c1)c1cc(O)c(O)c(OC(=O)c2cc(O)c(O)c(O)c2)c1 [TANNIC ACID]
Not Active: IC50 [1] | IC50 [2] | Ki [2] | IC50 [3] | IC50 [4] | IC50 [5] | IC50 [6]

C#C[C@]1(O)CC[C@H]2[C@@H]3[C@H](C)CC4=C(CCC(=O)C4)[C@H]3CC[C@@]21C [TIBOLONE]
Not Active: IC50 [1] | IC50 [2] | Ki [2] | IC50 [3] | IC50 [4] | IC50 [5] | IC50 [6]

Cc1cccc(C)c1NC(=O)C(C)N (stereo unspecified) [TOCAINIDE]
Not Active: IC50 [1] | IC50 [2] | Ki [2] | IC50 [3] | IC50 [4] | IC50 [5] | IC50 [6]

Cc1ccc(S(=O)(=O)NC(=O)NN2CCCCCC2)cc1 [TOLAZAMIDE]
Not Active: IC50 [1] | IC50 [2] | Ki [2] | IC50 [3] | IC50 [4] | IC50 [5] | IC50 [6]

CC[C@@]1(O)C(=O)OCc2c1cc1n(c2=O)Cc2cc3c(CN(C)C)c(O)ccc3nc2-1 [TOPOTECAN]
Not Active: IC50 [1] | IC50 [2] | Ki [2] | IC50 [3] | IC50 [4] | IC50 [5] | IC50 [6]

CC1=C(/C=C/C(C)=C/C=C/C(C)=C/C(=O)O)C(C)(C)CCC1 [TRETINOIN]
Not Active: IC50 [1] | IC50 [2] | Ki [2] | IC50 [3] | IC50 [4] | IC50 [5] | IC50 [6]

CC(Cl)(Cl)Cl [TRICHLOROETHANE]
Not Active: IC50 [1] | IC50 [2] | Ki [2] | IC50 [3] | IC50 [4] | IC50 [5] | IC50 [6]

CN1C(=O)OC(C)(C)C1=O [TRIMETHADIONE]
Not Active: IC50 [1] | IC50 [2] | Ki [2] | IC50 [3] | IC50 [4] | IC50 [5] | IC50 [6]
